Columns and labels:
Assay type in all cases: biochemical
[1] = test system: human Factor B depleted sera with Factor B, rabbit red blood cells; assay: Enhanced AP RBC hemolysis assay (Factor B depleted sera with Factor B spiked back); design: unit of the concentration uncertain
Procedure: (§1) Percent lysis was calculated using the following formula: [(OD415 of sample−OD415 EDTA negative control)/(OD415 saline positive control-OD415 EDTA)*100 ] (Table 17A and Table 17B). IC50s were calculated by nonlinear regression (Prism 9, log(inhibitor,bv) vs. response-4 parameter variable slope model) (Table 18A and Table 18B).

[2] = test system: 20% Normal Human Serum, rabbit red blood cells; assay: Standard Alternative Pathway (AP) RBC hemolysis assay; design: unit of the concentration uncertain
Procedure: as §1

[3] = test system: Human Factor B digests in human Factor B Depleted Serum, rabbit red blood cells; assay: Hemolysis assay with Factor B digests (KLK5 and chymase-based protease); settings: 4 μM Factor B digested 1 hour at 37° C., 15% serum
Procedure: FIG. 7A depicts a graph showing hemolysis inhibition by KLK5 and compared with a chymase-based engineered protease C22S/F173Y/D175N/A226R. All references in this Example to engineered proteases are depicted in chymotrypsin numbering. The chymotrypsin numbering key for the modified protease domains of engineered proteases are found in Tables 2, 4, and 6 for uPA, MTSP-1, and chymase, respectively. Briefly, a digestion reaction was prepared with 4.0 μM of Human Factor B (Complement Technologies) in 20 μL buffer (50 mM Tris pH 7.4/50 mM NaCl/0.01% Tween 20). Different concentration of the KLK5 protease or the chymase-based engineered protease C22S/F173Y/D175N/A226R (400, 200, 100, 50, 25, 12.5, 6.25, 3.125, 1.56, 0.78, and 0.39 with a control at 0.0 nM) were added to 4 μM of Factor B and incubated for 1 hour at 37° C. After digestion, 6 μL of the reaction was evaluated in a hemolysis assay.
The Factor B digestion reactions were diluted in 20 μL of GVB (Complement Technologies), 10 mM MgCl2 and 8 mM EGTA (GVB/Mg/EGTA). 45 μL of human Factor B Depleted Serum (Complement Technologies) was then added to 5 μL of human Factor B digests to obtain a final volume of 90% serum. In parallel, 50 μL of rabbit red blood cells (Colorado Serum Co.) were diluted into 950 μL of GVB/Mg/EGTA and mixed gently. […] The plate absorbance was read at 415 nm with a spectrophotometer and the EC50 was calculated.

Human Factor B [4] = biological target: T1, Human Factor B (Homo sapiens, UniProt P00751); assay: Mass spectrometry identification of Factor B cleavage sites
Procedure: FIG. 9 depicts mass spectrometry (MS) data identifying the cleavage site at 234 Arg within the QQKR/KIV (SEQ ID NO: 9) cleavage site of Factor B by KLK5, and identifying the cleavage site at ^221Asp within the EGVDAE (SEQ ID NO: 13) cleavage site of Factor B by the chymase-based engineered protease C22S/A226R. Briefly, human Factor B (Comptech) was incubated at 2 μM with different concentration of Kallikrein 5 (KLK5, R&D Systems) or the chymase-based engineered protease C22S/A226R at 10 nM or 100 pM for 10 minutes to 1 hour at 37° C. in 20 mM Tris pH 8 buffer with 16-0 or 18-0 water. The reaction was quenched with 20 μM of inhibitor FFR-CMK for 30 minutes at room temperature. Half of the sample was further treated with Rapidgest/chymotrypsin and adjusted to pH 3 by the addition of […] 1% TFA. TCEP (100 mM final concentration) was then added to reduce disulfides for 30 minutes at 37° C. […] of each sample was bound to a Ziptip (Millipore) and eluted with […] 80% ACN-0.1% TFA. After drying in a Speedvac, the samples were re-dissolved in […] of 30% ACN-0.05% TFA. 0.35 mL of the sample was loaded with 0.45 mL of CHCA matrix (10 mg/mL) onto an OptiPlate, and analyzed by MALDI-MS (ABI 4700) in both linear (m/z 2-22k) and reflector (m/z 1500-5400) mode. The tandem MS was carried out on peptides of interest when possible. Two large peptide fragments were detected at […] and 59 kDa. In summary, 100 pM KLK5 cleaves at 1 of 38 Arg in a 10 minute reaction and in 4 out of 38 Arg in a 60 minute reaction (Arg175, Arg193, Arg730 and Arg739). At 10 nM, cleavage was detected in […] in 10 and 60 minute reactions (Arg50, Arg74, Arg94, Arg175, Arg182, Arg193, Arg202, Arg203, Arg259, Arg381, Arg415, Arg658, Arg679, Arg708, Arg710, Arg730, Arg739). The earliest cleavage event was at Arg 730.
The reconstructed ion chromatograms shown in FIG. 9 are of reaction products from Kallikrein-5 (“KLK”), the chymase-based engineered protease C22S/A226R (“chymase-based”), and plasma derived-Factor B (“Fb control”). […] In contrast, KLK5 cleaves Factor B at ^234 Arg (peak at 4.69 minutes, MW 61437).

Human Factor B [5] = biological target: T1, Human Factor B; assay: Factor B cleavage by KLK5, Factor B ELISA; settings: 4 μM Factor B, 1 hour at 37° C., two stocks
Procedure: FIG. 7B depicts a graph showing Factor B cleavage with KLK5 and a chymase-based engineered protease C22S/F173Y/D175N/A226R. Briefly, A digestion reaction is prepared with 4.0 uM of Human Factor B (Complement Technologies) in 20 μL buffer (50 mM Tris pH 7.4/50 mM NaCl/0.01% Tween 20). Different concentrations of KLK5 (400, 200, 100, 50, 25, 12.5, 6.25, 3.125, 1.56, 0.78, and 0.39 with a control at 0.0 nM) are added to 4 μM of factor B and incubated for 1 hour at 37° C. After digestion, 15 μL of the reaction is transferred to a 96 well plate with 1.5 μL of 0.2N HCL. After quenching, the reactions are prepared factor B ELISA.
A Factor B standard curve is made with 800, 533.3, 355.5, 237.0, 158.0, 105.3, 70.2, 46.8, 31.2, 20.8, 0.0 pM in 1% BSA-PBST. A 384 well plate was coated with the monoclonal antibody against human Factor Ba (#A225, Quidel) at 2 μg/mL in carbonate buffer (25 μL/well). […]
The biotinylated monoclonal antibody against human Factor Bb (Quidel) was then added at 0.125 μg/ml to detect the bound Factor B. Streptavidin-HRP was then diluted at 1:200 in blocking buffer (25 μL/well) and the plate was agitated for 30 minutes at room temperature. The plate was developed with ELISABright, (50 μL/well) for 1 minute at room temperature and read in the EnVision plate reader. […]

[6] = concentration 0.33 (unit uncertain)
[7] = concentration 1 (unit uncertain)
[8] = concentration 3 (unit uncertain)
[9] = concentration 10 (unit uncertain)

T1 sequence (P00751 26-764): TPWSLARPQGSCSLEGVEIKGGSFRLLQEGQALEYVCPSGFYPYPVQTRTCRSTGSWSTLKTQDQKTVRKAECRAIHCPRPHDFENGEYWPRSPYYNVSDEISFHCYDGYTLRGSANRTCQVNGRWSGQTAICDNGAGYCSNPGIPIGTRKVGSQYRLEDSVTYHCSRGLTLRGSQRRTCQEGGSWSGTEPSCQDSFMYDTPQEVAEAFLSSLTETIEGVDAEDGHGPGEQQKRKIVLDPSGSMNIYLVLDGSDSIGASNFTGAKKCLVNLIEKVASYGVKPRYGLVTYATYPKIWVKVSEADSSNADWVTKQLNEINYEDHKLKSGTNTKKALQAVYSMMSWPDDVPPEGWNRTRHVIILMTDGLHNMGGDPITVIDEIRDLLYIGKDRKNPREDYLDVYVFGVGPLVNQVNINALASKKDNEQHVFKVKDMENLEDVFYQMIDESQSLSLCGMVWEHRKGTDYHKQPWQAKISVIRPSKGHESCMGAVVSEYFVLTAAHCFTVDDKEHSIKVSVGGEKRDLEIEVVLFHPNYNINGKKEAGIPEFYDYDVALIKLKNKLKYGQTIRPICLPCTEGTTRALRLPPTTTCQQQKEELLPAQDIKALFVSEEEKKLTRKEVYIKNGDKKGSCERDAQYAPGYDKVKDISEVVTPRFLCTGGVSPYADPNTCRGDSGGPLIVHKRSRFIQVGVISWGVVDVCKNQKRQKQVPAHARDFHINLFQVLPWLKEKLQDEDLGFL

Compound: CCO[C@H]1CCN(Cc2c(OC)cc(C)c3[nH]ccc23)[C@H](c2ccc(C(=O)O)cc2)C1 [LNP023]
- % Hemolysis [1, 6]: 102.50%
- % Hemolysis [1, 7]: 108.48%
- % Hemolysis [1, 8]: 33.94%
- % Hemolysis [1, 9]: 0%
- % Hemolysis [2, 6]: 0%
- % Hemolysis [2, 7]: 1.16%
- % Hemolysis [2, 8]: 0%
- % Hemolysis [2, 9]: 0%

Compound: KLK5: Kallikrein-related peptidase 5 protease (R&D Systems)
- inhibition of hemolysis [3]: effective in inhibition of hemolysis
- earliest cleavage event (Human Factor B [4]): Arg 730
- remaining intact Factor B (reconstructed ion chromatogram) (Human Factor B [4]): No remaining intact Factor B
- number of Arg of Factor B cleaved (Human Factor B [4]; 100 pM, 10 minute reaction): 1 of 38
- number of Arg of Factor B cleaved (Human Factor B [4]; 100 pM, 60 minute reaction): 4 out of 38
- number of Arg of Factor B cleaved (Human Factor B [4]; 10 nM, 10 and 60 minute reactions): 18 of 38
- cleavage of Factor B (ELISA) (Human Factor B [5]): effective in cleavage Factor B
